Assay results reported in US20070128217A1 (priority 2003, published 2007).

Assays:
[1] = test system: antibodies in sera from SARS patients (sera 1a, 1b, 2, 6, 37, 62, London, SARS-yellow, SARS-green); format: binding, human; parameters: Binding of serum 6 to linear peptides of protein X1 of SARS-CoV Urbani / Binding of serum 37 to linear peptides of protein X1 of SARS-CoV Urbani / Binding of serum 6 to looped/cyclic peptide (PEPSCAN-ELISA) / Binding of serum 37 to looped/cyclic peptide (PEPSCAN-ELISA) / Binding of serum 37 to looped/cyclic peptides of protein X1 of SARS-CoV Urbani / Binding of serum 6 to linear peptides of protein X2 / Binding of serum 37 to linear peptides of protein X2 / Binding of serum 37 to looped/cyclic peptides of protein X2 of SARS-CoV Urbani / Binding of serum 6 to linear peptides of protein M of SARS-CoV Urbani / Binding of serum 37 to linear peptides of protein M of SARS-CoV Urbani / Binding of serum 6 to looped/cyclic peptides of protein M of SARS-CoV Urbani / Binding of serum 37 to looped/cyclic peptides of protein M of SARS-CoV Urbani / Binding of serum 6 to linear peptides of protein X3 of SARS-CoV Urbani / Binding of serum 37 to linear peptides of protein X3 of SARS-CoV Urbani / Binding of serum 37 to looped/cyclic peptides of protein X3 of SARS-CoV Urbani / Binding of serum 6 to linear peptides of protein X4 of SARS-CoV Urbani / Binding of serum 37 to linear peptides of protein X4 of SARS-CoV Urbani / Binding of serum 37 to looped/cyclic peptides of protein X4 of SARS-CoV Urbani / Binding of serum 6 to linear peptides of protein X5 of SARS-CoV Urbani / Binding of serum 37 to linear peptides of protein X5 of SARS-CoV Urbani / Binding of serum 37 to looped/cyclic peptides of protein X5 of SARS-CoV Urbani / Binding of serum 6 to linear peptides of protein N of SARS-CoV Urbani / Binding of serum 37 to linear peptides of protein N of SARS-CoV Urbani / Binding of serum 6 to linear peptide (PEPSCAN-ELISA) / Binding of serum 1a to looped/cyclic peptides of protein N of SARS-CoV Urbani / Binding of serum 1b to looped/cyclic peptides of protein N of SARS-CoV Urbani / Binding of serum 2 to looped/cyclic peptides of protein N of SARS-CoV Urbani / Binding of serum 6 to looped/cyclic peptides of protein N of SARS-CoV Urbani / Binding of serum 37 to looped/cyclic peptides of protein N of SARS-CoV Urbani / Binding of serum 62 to looped/cyclic peptides of protein N of SARS-CoV Urbani / Binding of serum London to looped/cyclic peptides of protein N of SARS-CoV Urbani / Binding of serum SARS-green to looped/cyclic peptides of protein N of SARS-CoV Urbani: unit not given here
[2] = test system: control sera (pooled serum of ten healthy LUMC hospital workers; commercial negative donor pooled serum from the Dutch bloodbank); format: binding, human; parameters: Binding of Control serum LUMC to linear peptides / Binding of Control serum Blood-bank to linear peptides / Binding of Control serum LUMC to looped peptides / Binding of Control Serum Blood-Bank to Looped peptides / Binding of Control serum LUMC to linear peptides of the protein M of SARS-CoV Urbani / Binding of Control serum Blood-bank to linear peptides of the protein M of SARS-CoV Urbani / Binding of Control serum LUMC to looped peptides of the protein M of SARS-CoV Urbani / Binding of Control Serum Blood-Bank to Looped peptides of the protein M of SARS-CoV Urbani: unit not given here
[3] = test system: rabbit serum obtained by immunizing a rabbit with the SARS-CoV strain Frankfurt 1; format: binding; parameters: Binding of a rabbit serum to linear peptides / Binding of a rabbit serum to looped peptides / Rabbit serum linear peptides / Rabbit serum looped peptides / Binding of a rabbit serum to linear peptides of protein N of SARS-CoV Urbani (Rabbit serum linear peptides) / Binding of a rabbit serum to looped/cyclic peptides of protein N of SARS-CoV Urbani (Rabbit serum looped peptides): unit not given here

VLAAVYRINWVTGGI
0.8: Binding of serum 1a to linear peptides of protein M of SARS-CoV Urbani [1] | Binding of Control Serum Blood-Bank to Looped peptides of the protein M of SARS-CoV Urbani [2] | Binding of Control serum LUMC to looped peptides of the protein M of SARS-CoV Urbani [2]
0.9: Binding of Control serum Blood-bank to linear peptides of the protein M of SARS-CoV Urbani [2]
0.2: Binding of serum London to looped/cyclic peptides of protein M of SARS-CoV Urbani [1] | Binding of serum SARS-green to looped/cyclic peptides of protein M of SARS-CoV Urbani [1] | Binding of serum SARS-yellow to linear peptides of protein M of SARS-CoV Urbani [1]
0.3: Rabbit serum linear peptides [3]
0.5: Binding of serum 1b to looped/cyclic peptides of protein M of SARS-CoV Urbani [1] | Binding of serum 6 to linear peptides of protein M of SARS-CoV Urbani [1] | Binding of serum 62 to looped/cyclic peptides of protein M of SARS-CoV Urbani [1]
0.4: Binding of serum London to linear peptides of protein M of SARS-CoV Urbani [1]
0.7: Binding of serum 1b to linear peptides of protein M of SARS-CoV Urbani [1] | Binding of serum 2 to linear peptides of protein M of SARS-CoV Urbani [1] | Binding of serum 6 to looped/cyclic peptides of protein M of SARS-CoV Urbani [1]
0.6: Binding of serum 1a to looped/cyclic peptides of protein M of SARS-CoV Urbani [1] | Binding of serum 2 to looped/cyclic peptides of protein M of SARS-CoV Urbani [1] | Binding of serum 37 to linear peptides of protein M of SARS-CoV Urbani [1] | Binding of serum 37 to looped/cyclic peptides of protein M of SARS-CoV Urbani [1] | Binding of serum 62 to linear peptides of protein M of SARS-CoV Urbani [1] | Binding of serum SARS-green to linear peptides of protein M of SARS-CoV Urbani [1] | Binding of serum SARS-yellow to looped/cyclic peptides of protein M of SARS-CoV Urbani [1]
1.0: Binding of Control serum LUMC to linear peptides of the protein M of SARS-CoV Urbani [2]
0.0: Rabbit serum looped peptides [3]

QFICNLLLLFVTIYS
0.6: Binding of serum 1a to linear peptides of protein X1 of SARS-CoV Urbani [1] | Binding of serum 2 to linear peptides of protein X1 of SARS-CoV Urbani [1] | Binding of serum 2 to looped/cyclic peptide (PEPSCAN-ELISA) [1] | Binding of serum 62 to linear peptides of protein X1 of SARS-CoV Urbani [1] | Binding of Control serum Blood-bank to linear peptides [2] | Binding of Control serum LUMC to linear peptides [2]
0.0: Binding of serum SARS-green to linear peptides of protein X1 of SARS-CoV Urbani [1]
0.2: Binding of serum London to linear peptides of protein X1 of SARS-CoV Urbani [1] | Binding of serum London to looped/cyclic peptide (PEPSCAN-ELISA) [1] | Binding of serum SARS-green to looped/cyclic peptide (PEPSCAN-ELISA) [1]
0.3: Binding of serum 6 to looped/cyclic peptide (PEPSCAN-ELISA) [1] | Binding of a rabbit serum to linear peptides [3]
0.4: Binding of serum 1b to looped/cyclic peptide (PEPSCAN-ELISA) [1] | Binding of serum 6 to linear peptides of protein X1 of SARS-CoV Urbani [1] | Binding of serum SARS-yellow to linear peptides of protein X1 of SARS-CoV Urbani [1]
0.5: Binding of serum 1a to looped/cyclic peptide (PEPSCAN-ELISA) [1] | Binding of serum 1b to linear peptides of protein X1 of SARS-CoV Urbani [1] | Binding of serum 37 to linear peptides of protein X1 of SARS-CoV Urbani [1] | Binding of serum 37 to looped/cyclic peptide (PEPSCAN-ELISA) [1] | Binding of serum 62 to looped/cyclic peptide (PEPSCAN-ELISA) [1] | Binding of serum SARS-yellow to looped/cyclic peptide (PEPSCAN-ELISA) [1] | Binding of Control Serum Blood-Bank to Looped peptides [2] | Binding of Control serum LUMC to looped peptides [2] | Binding of a rabbit serum to looped peptides [3]

LFIRQEEVQQELYSP
0.4: Rabbit serum linear peptides [3] | Rabbit serum looped peptides [3]
0.6: Binding of serum 2 to linear peptides of protein X4 of SARS-CoV Urbani [1] | Binding of serum SARS-green to linear peptides of protein X4 of SARS-CoV Urbani [1]
0.8: Binding of serum 1a to linear peptides of protein X4 of SARS-CoV Urbani [1] | Binding of serum 62 to linear peptides of protein X4 of SARS-CoV Urbani [1] | Binding of serum 62 to looped/cyclic peptides of protein X4 of SARS-CoV Urbani [1] | Binding of serum London to linear peptides of protein X4 of SARS-CoV Urbani [1] | Binding of serum SARS-green to looped/cyclic peptides of protein X4 of SARS-CoV Urbani [1] | Binding of Control Serum Blood-Bank to Looped peptides [2] | Binding of Control serum LUMC to looped peptides [2]
0.3: Binding of serum London to looped/cyclic peptides of protein X4 of SARS-CoV Urbani [1]
0.5: Binding of serum 1b to looped/cyclic peptides of protein X4 of SARS-CoV Urbani [1] | Binding of serum 6 to linear peptides of protein X4 of SARS-CoV Urbani [1]
0.7: Binding of serum 1a to looped/cyclic peptides of protein X4 of SARS-CoV Urbani [1] | Binding of serum 1b to linear peptides of protein X4 of SARS-CoV Urbani [1] | Binding of serum 2 to looped/cyclic peptides of protein X4 of SARS-CoV Urbani [1] | Binding of serum 37 to linear peptides of protein X4 of SARS-CoV Urbani [1] | Binding of serum 37 to looped/cyclic peptides of protein X4 of SARS-CoV Urbani [1] | Binding of serum SARS-yellow to linear peptides of protein X4 of SARS-CoV Urbani [1] | Binding of serum SARS-yellow to looped/cyclic peptides of protein X4 of SARS-CoV Urbani [1] | Binding of Control serum Blood-bank to linear peptides [2] | Binding of Control serum LUMC to linear peptides [2]
